In paper PMC9370616, “Three New Acrylic Acid Derivatives from Achillea mellifolium as Potential Inhibitors of Urease from Jack Bean and α-Glucosidase from Saccharomyces cerevisiae” (Molecules, 2022):

Legend:
jack-bean urease = biological target: T1, jack-bean urease (Canavalia ensiformis, UniProt P07374); experiment: biochemical
T1 construct: purchased Sigma Aldrich
Protocol: The assay mixture, containing 50 μL (2 mg/mL) of jack-bean urease (purchased from Sigma Aldrich) and 100 μL of different concentration of test compounds, which were previously dissolved in ethanol 20%, was added to 850 μL of 25 mM urea and pre-incubated for 0.5 h in a water bath at 37 °C. The urease reaction was stopped after 30 min incubation by following procedure.
Urease activity was determined by measuring ammonia production using the indophenol method, as described by Weatherburn. After pre-incubation, 500 μL of phenol reagent (1% w/v phenol and 0.005% w/v sodium nitroprusside) and 500 μL of alkali reagent (1% w/v NaOH and 0.075% active chloride NaOCl) were added to 100 μL of incubation mixture and kept at 37 °C for 30 min. The absorbance was measured at 625 nm. All experiments were performed in triplicate in a final volume of 1 mL, and thiourea was used as a standard urease inhibitor.
Percentage inhibitions were calculated using the formula:(100 − (OD sample/OD control) × 100)
The IC50 values were then calculated using GraphPad Prism 5 software.

[1] = biological target: α-glucosidase from Saccharomyces cerevisiae; experiment: α-Glucosidase inhibition assay (chromogenic method, p-nitrophenyl-α-D-glucopyranoside); format: biochemical; details: pH 6.9, 37 °C; read-out: α Glucosidase Inhibition (IC50 ± S.E.M)
Protocol: α-glucosidase from Saccharomyces cerevisiae was purchased from Sigma Aldrich. […] The test samples were prepared (200 µg/mL) in DMSO and 10 μL of each sample was added to 20 μL of α-glucosidase solution (prepared in 120 μL of 0.1 M phosphate buffer, pH 6.9) in a 96-well plate format and incubated for 15 min at 37 °C. After incubation, 20 μL p-nitrophenyl-α-D-glucopyranoside (5 mM) solution was added to this mixture and incubated for a further 15 min. Finally, 80 µL of Na2CO3 solution (0.2 M) was added to this solution to stop the reaction and the absorbance was measured at 410 nm with SpectraMax microplate reader, M2. […] The α-glucosidase inhibition (%) was calculated with the help of the following formula:Inhibition (%) = (Absorbance of Control − Absorbance of Sample)/(Absorbance of Control) × 100
The IC50 values of the active samples were calculated using regression equation by plotting % inhibition at various concentrations.

T1 sequence (P07374 whole entry, looked up): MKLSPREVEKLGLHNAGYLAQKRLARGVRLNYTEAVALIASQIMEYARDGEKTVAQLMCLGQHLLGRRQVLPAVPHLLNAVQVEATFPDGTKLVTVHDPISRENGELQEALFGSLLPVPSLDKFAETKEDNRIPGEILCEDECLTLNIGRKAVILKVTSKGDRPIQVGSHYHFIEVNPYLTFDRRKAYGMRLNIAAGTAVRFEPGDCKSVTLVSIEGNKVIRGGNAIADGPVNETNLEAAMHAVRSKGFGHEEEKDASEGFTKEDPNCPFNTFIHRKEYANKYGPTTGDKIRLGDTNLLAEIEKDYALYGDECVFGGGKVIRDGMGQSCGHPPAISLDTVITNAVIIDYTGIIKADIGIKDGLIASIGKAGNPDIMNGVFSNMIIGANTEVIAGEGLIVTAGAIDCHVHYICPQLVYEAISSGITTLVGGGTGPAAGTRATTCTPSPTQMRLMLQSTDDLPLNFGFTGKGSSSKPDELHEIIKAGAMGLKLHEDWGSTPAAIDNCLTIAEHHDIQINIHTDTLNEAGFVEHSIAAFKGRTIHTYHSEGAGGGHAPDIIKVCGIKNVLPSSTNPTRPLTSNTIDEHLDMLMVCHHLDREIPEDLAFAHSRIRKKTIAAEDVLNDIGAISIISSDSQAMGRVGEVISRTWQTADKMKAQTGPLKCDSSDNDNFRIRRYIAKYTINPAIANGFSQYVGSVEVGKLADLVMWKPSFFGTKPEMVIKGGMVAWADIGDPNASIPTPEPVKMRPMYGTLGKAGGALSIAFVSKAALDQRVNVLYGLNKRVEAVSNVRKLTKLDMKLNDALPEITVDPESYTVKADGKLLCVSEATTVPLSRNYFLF

| Structure (SMILES) | IC50 (jack-bean urease) [µM] | IC50 [1] [µM] |
| --- | --- | --- |
| CCOC(=O)/C=C/[C@H]1C(C)=CC(=O)[C@H](OC)C1(C)C (relative stereo) [Compound 1, ethyl (E)-3-((1S,5R)-5-methoxy-2,6,6-trimethyl-4-oxocyclohex-2-en-1-yl)acrylate] | 16.87 ± 0.02 | 331.47 ± 0.04 |
| COC(=O)/C=C/[C@H]1C(C)=CC(=O)[C@H](OC)C1(C)C (relative stereo) [Compound 2, methyl (E)-3-((1S,5R)-5-methoxy-2,6,6-trimethyl-4-oxocyclohex-2-en-1-yl)acrylate] | 13.71 ± 0.07 | 294.18 ± 0.07 |
| CO[C@H]1C(=O)C=C(C)[C@H](/C=C/C(C)=O)C1(C)C (relative stereo) [Compound 3, (4S,6R)-6-methoxy-3,5,5-trimethyl-4-((E)-3-oxobut-1-en-1-yl)cyclohex-2-en-1-one] | 10.46 ± 0.03 | 310.68 ± 0.05 |
